# Measurements as given in US20120010229A1, “THERAPEUTIC REGIMENS FOR HEDGEHOG-ASSOCIATED CANCERS” (priority 2010, published 2012).
# Where a name gives a salt, the structure may show the parent alone.
# Assays:
# [1] = test system: Sonic Hedgehog (SHH) ligand expression in bladder cancer cells; test: Sonic Hedgehog ligand expression in bladder cancer cells after chemotherapy; type: cell-based, human; settings: over time after chemotherapy
# Source text: Similar results showing increases in Hh ligand expression in response to chemotherapy have been found in other tumor cells. For example, chemotherapy increases in Sonic Hedgehog (SHH) ligand expression in bladder cancer cells are depicted in FIGS. 4A-4D.
# Pgp = Pgp (Homo sapiens, UniProt P08183); settings: cited from earlier work
# hedgehog pathway = test: C3H10T1/2 alkaline phosphatase assay (Shh-dependent osteoblast differentiation); type: cell-based; settings: Mus musculus, C3H 10T1/2; sonic hedgehog 250 ng/ml; AP normalized to total protein; read-out: IC50, antagonist of the hedgehog pathway (AP activity)
# Source text: Cancer cell killing by inhibition of a component of the hedgehog pathway can be ascertained using the following assay. C3H10T1/2 cells differentiate into osteoblasts when contacted with the sonic hedgehog peptide (Shh-N). Upon differentiation, these osteoblasts produce high levels of alkaline phosphatase (AP) which can be measured in an enzymatic assay (Nakamura et al., 1997 BBRC 237: 465). Compounds that block the differentiation of C3H10T1/2 into osteoblasts (a Shh dependent event) can therefore be identified by a reduction in AP production (van der Horst et al., 2003 Bone 33: 899). The assay details are described below. Additional assays to ascertain the activity of hedgehog inhibitors, including IPI-926, are described in US 2009/0181997 by Grayzel et al.; U.S. Ser. No. 61/327,373 and 61/331,365, filed on Apr. 23, 2010 and May 4, 2010, respectively; the entire contents of the aforesaid applications are incorporated herein by reference. […]
# C3H10T1/2 cells were plated in 96 wells with a density of 8×10^3 cells/well. […] After incubating for 30 min at 37° C., the plates were read on an Envision plate reader at 405 nm. Total protein was quantified with a BCA protein assay kit from Pierce according to manufacturer's instructions. […]
# [2] = test system: LuCaP35V (Castration Resistant) primary prostate cancer; test: LuCaP35V castration resistant primary prostate cancer model; type: in vivo; settings: docetaxel IV Q14D for 28 days, docetaxel+vehicle samples
# Source text: The effects of IPI-926 were examined following docetaxel chemotherapy in a model of castration resistant prostate cancer. Prostate cancer is known to be a highly desmoplastic cancer, and one that preferentially metastasizes to bone. Sonic hedgehog ligand is expressed in clinical specimens and primary xenograft models. […] FIG. 7 summarizes the effects of IPI-926 in LuCaP35V (Castration Resistant) primary prostate cancer model. Days of docetaxel and IPI-926 administration are indicated by the arrowheads at the indicated days post-implant. The following samples were tested: Vehicle control (administered orally once a day), 40 mg/kg of IPI-926 (administered orally once a day), docetaxel (administered intravenously Q14D for 28 days), or docetaxel (administered intravenously Q14D for 28 days) followed by 40 mg/kg of IPI-926, as shown in FIG. 7. […] Thus, IPI-926 can be useful as maintenance therapy in prostate cancer.
# [3] = test system: Ptch1+/-; p53-/- medulloblastoma; settings: cited from earlier work
# Sequence of Pgp (P08183 whole entry): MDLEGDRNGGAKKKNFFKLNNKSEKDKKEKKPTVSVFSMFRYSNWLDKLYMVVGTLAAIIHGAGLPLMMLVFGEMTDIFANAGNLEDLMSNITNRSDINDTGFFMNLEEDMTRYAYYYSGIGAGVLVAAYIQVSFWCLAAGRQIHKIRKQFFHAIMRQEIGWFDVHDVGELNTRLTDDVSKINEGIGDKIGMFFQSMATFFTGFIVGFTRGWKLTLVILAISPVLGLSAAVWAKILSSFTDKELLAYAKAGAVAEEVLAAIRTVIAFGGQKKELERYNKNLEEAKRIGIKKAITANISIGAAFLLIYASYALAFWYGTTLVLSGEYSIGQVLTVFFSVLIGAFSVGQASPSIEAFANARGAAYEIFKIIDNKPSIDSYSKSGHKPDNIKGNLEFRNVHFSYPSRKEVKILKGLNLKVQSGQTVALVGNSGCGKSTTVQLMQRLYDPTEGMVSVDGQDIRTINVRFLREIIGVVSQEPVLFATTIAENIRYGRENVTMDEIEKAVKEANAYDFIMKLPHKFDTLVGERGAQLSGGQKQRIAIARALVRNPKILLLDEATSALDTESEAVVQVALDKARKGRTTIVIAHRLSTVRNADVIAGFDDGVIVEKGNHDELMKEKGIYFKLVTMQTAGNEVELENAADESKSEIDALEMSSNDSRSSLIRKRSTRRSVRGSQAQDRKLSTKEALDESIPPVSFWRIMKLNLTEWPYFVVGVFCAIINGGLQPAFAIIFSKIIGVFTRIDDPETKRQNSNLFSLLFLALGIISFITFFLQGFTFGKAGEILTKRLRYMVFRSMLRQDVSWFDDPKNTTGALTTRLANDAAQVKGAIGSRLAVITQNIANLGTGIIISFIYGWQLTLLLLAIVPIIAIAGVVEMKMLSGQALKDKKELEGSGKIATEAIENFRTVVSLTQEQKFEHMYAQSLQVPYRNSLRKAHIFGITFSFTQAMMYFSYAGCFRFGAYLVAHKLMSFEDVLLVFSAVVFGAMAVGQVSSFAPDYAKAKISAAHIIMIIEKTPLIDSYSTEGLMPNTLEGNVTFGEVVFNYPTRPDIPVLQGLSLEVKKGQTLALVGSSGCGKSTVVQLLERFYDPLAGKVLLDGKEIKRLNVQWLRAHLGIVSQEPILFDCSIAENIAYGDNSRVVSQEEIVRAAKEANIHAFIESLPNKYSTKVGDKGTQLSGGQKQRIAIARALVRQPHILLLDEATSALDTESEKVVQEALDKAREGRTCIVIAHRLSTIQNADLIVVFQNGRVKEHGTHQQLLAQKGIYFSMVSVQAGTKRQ
compound,measurement,setting,value
COc1cccc2c1C(=O)c1c(O)c3c(c(O)c1C2=O)C[C@@](O)(C(=O)CO)C[C@@H]3O[C@H]1C[C@H](N)[C@H](O)[C@H](C)O1 [Doxorubicin],Sonic Hedgehog (SHH) ligand expression,[1],increase in expression over time
CS(=O)(=O)c1ccc(C(=O)Nc2ccc(Cl)c(-c3ccccn3)c2)c(Cl)c1 [GDC-0449],Pgp substrate,Pgp,p-glycoprotein (Pgp) substrate
Nc1ccn([C@@H]2O[C@H](CO)[C@@H](O)C2(F)F)c(=O)n1 [Gemcitabine],Sonic Hedgehog (SHH) ligand expression,[1],increase in expression over time
CC1=C2C[C@H]3[C@@H](CC[C@@H]4C[C@H](NS(C)(=O)=O)CC[C@@]43C)[C@@H]2CC[C@@]2(C1)O[C@@H]1C[C@H](C)CN[C@H]1[C@H]2C [IPI-926 (HCl salt)],IC50,hedgehog pathway,< 20 nM
"CC(=O)O[C@@]12CO[C@@H]1C[C@H](O)[C@@]1(C)C(=O)[C@H](O)C3=C(C)[C@@H](OC(=O)[C@H](O)[C@@H](NC(=O)OC(C)(C)C)c4ccccc4)C[C@@](O)([C@@H](OC(=O)c4ccccc4)[C@H]21)C3(C)C [docetaxel, reference compound]",tumor volume after cessation of docetaxel,[2],Tumor reoccurrence was detected
HhAntag,survival vs vehicle,"[3]; 100 mg/kg, enrolled at 5 weeks of age",survival benefit
same,tumor mass,"[3]; 2 weeks of twice daily 20 mg/kg or 100 mg/kg, enrolled at 3 weeks of age",substantial decrease in tumor mass
